Test results as given in publication PMC12566046, “Arylpiperazinyl-Benzocycloheptapyrrole-Carboxamides Endowed with Dual Anticancer and Antiviral Activities” (Molecules, 2025).
Where two headings read alike, the source gives them in different places.

Tests used:
[1] = system: ZIKV, strain Brazil/2016/INMI1; assay: ZIKV viral yield reduction assay on Huh-7 cells; type: cell-based, Zika virus; conditions: preliminary screening (50, 5, 0.5 μM), Huh-7, read-out: ZIKV/Huh‐7 EC50
Outline: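 Huh-7 cells infected with ZIKV at MOI 1 for 2 h at 37 °C, compounds added right after infection in duplicate at 50, 5 and 0.5 μM. Supernatants taken at 48 h and titrated by plaque assay on VERO E6 under carboxymethyl cellulose with crystal violet staining. % inhibition from PFU/mL versus DMSO-treated control; SI = CC50/EC50.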

[2] = system: M14 (melanoma cell line); assay: NCI-60 five-dose assay
[3] = system: HCC-2998 (colon cancer cell line); assay: NCI-60 single-dose assay; type: cell-based, human; conditions: human
Outline: (§1)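 Single-dose cytotoxicity test run in the NCI-60 panel of human cancer cell lines. Threshold inhibition criteria across a minimum number of lines decided progression to five-dose testing.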

[4] = system: MOLT-4 (leukemia cell line); assay: NCI-60 single-dose assay; type: cell-based, human; conditions: for inhibition at 10 µM: Homo sapiens, MOLT-4, read-out: growth inhibition (GI%) and cytotoxicity (negative values)
Outline: as §1

[5] = system: KM12 (colon cancer cell line); assay: NCI-60 single-dose assay; type: cell-based, human; conditions: for inhibition at 10 µM: Homo sapiens, KM12, read-out: growth inhibition (GI%) and cytotoxicity (negative values)
Outline: as §1

[6] = system: UACC-62 (melanoma cell line); assay: NCI-60 single-dose assay; type: cell-based, human
Outline: as §1

[7] = system: UACC-257 (melanoma cell line); assay: NCI-60 single-dose assay; type: cell-based, human; conditions: human
Outline: as §1

[8] = system: SR (leukemia cell line); assay: NCI-60 single-dose assay; type: cell-based, human
Outline: as §1

[9] = system: IAV strain A/PR/8/34 (H1N1); assay: microbe, parasite or virus in culture; conditions: Influenza A virus, MDCK, read-out: IAV/MDCK EC50
[10] = system: SW-620 (colon cancer cell line); assay: NCI-60 five-dose assay; type: cell-based, human
[11] = system: NCI-60 cell line panel; assay: NCI-60 single-dose assay, whole panel; type: cell-based, human; conditions: summary over the panel
Outline: as §1

[12] = system: UACC-62 (melanoma cell line); assay: NCI-60 five-dose assay
[13] = system: SK-MEL-5 (melanoma cell line); assay: NCI-60 five-dose assay
[14] = system: SK-MEL-28 (melanoma cell line); assay: NCI-60 five-dose assay
[15] = system: UACC-257 (melanoma cell line); assay: NCI-60 five-dose assay
[16] = system: SK-MEL-2 (melanoma cell line); assay: NCI-60 five-dose assay
[17] = system: Colon Cancer panel; assay: NCI-60 five-dose assay, panel-level GI50 (mean graph midpoint, range); type: cell-based, human
Experimental: Due to these preliminary results, six compounds, 1, 5, 10, 11, 17, and 20, were selected for the five-dose screen NCI-programme against the same panel of tumour cell lines.
Next, a mean graph midpoint (MG_MD) was calculated for compounds 1, 5, 10, 11, 17, and 20 and reported as waterfall graphs GI50, TGI, and LC50 in the Supplementary Materials (Figures S69–S86). In Table 9, we reported the average GI50 for the nine-cancer panels, underlining both the activity and selectivity for compounds 1, 10, 11, and 20.

[18] = Homo sapiens, M14, read-out: Growth inhibition 50 (GI50)
[19] = Homo sapiens, M14, read-out: LC50 (molar concentration leading to 50% net cell death)
[20] = Homo sapiens, UACC-62, read-out: Growth inhibition 50 (GI50)
[21] = Homo sapiens, SK-MEL-5, read-out: Growth inhibition 50 (GI50)
[22] = Homo sapiens, SK-MEL-28, read-out: Growth inhibition 50 (GI50)
[23] = Homo sapiens, UACC-257, read-out: Growth inhibition 50 (GI50)
[24] = Homo sapiens, SK-MEL-2, read-out: Growth inhibition 50 (GI50)
[25] = Homo sapiens, SK-MEL-2, read-out: LC50 (molar concentration leading to 50% net cell death)
[26] = Homo sapiens, Colon Cancer panel average, read-out: GI50 mean graph midpoint (MG_MID)

Row | Compound | EC50 ([1]; Zika virus) [µM] | GI50 [2, 18] [µM] | CC50 [2, 19] [µM] | TGI (molar concentration giving total growth inhibition) ([2]; M14) [µM] | growth inhibition (GI%) and cytotoxicity (negative values) [3] [%] | inhibition at 10 µM [4] [%] | inhibition at 10 µM [5] [%] | growth inhibition (GI%) and cytotoxicity (negative values) [7] [%] | growth inhibition (GI%) reached against cancer cell lines of the NCI-60 panel [11] [%] | GI50 [12, 20] [µM] | TGI (molar concentration giving total growth inhibition) ([12]; UACC-62) [µM] | GI50 [13, 21] [µM] | TGI (molar concentration giving total growth inhibition) ([13]; SK-MEL-5) [µM] | GI50 [14, 22] [µM] | GI50 [15, 23] [µM] | TGI (molar concentration giving total growth inhibition) ([15]; UACC-257) [µM] | GI50 [16, 24] [µM] | CC50 [16, 25] [µM] | TGI (molar concentration giving total growth inhibition) ([16]; SK-MEL-2) [µM] | GI50 [17, 26] [µM] | other results
1 | CCN1CCC[C@H]1CNC(=O)c1[nH]c2c(c1Cl)CCCc1ccccc1-2 [Compound 1, (S)-3-Chloro-N-(1-ethyl-2-pyrrolidinylmethyl)-5,6-dihydro-4H-benzo[6,7]cyclohepta[1,2-b]pyrrol-2-carboxamide] | 2.07 | 2.03 | 9.12 | 4.36 | −21.01 | 96.2 | 83.8 | −55.18 | > 90 | 1.87 | 3.98 | 1.68 | 3.09 | 1.87 | 1.88 | 3.98 | 9.38 | 46.8 | 21.34 | 2.34 | growth inhibition (GI%) and cytotoxicity (negative values) ([6]; human): −73.43%; inhibition at 10 µM ([8]; Homo sapiens, read-out: growth inhibition (GI%) and cytotoxicity (negative values)): 96.3%; EC50 [9]: 17.7 µM; GI50 ([10]; Homo sapiens, SW-620, read-out: Growth inhibition 50 (GI50)): 1.75 µM; CC50 ([12]; Homo sapiens, UACC-62, read-out: LC50 (molar concentration leading to 50% net cell death)): 8.32 µM; CC50 ([13]; Homo sapiens, SK-MEL-5, read-out: LC50 (molar concentration leading to 50% net cell death)): 5.62 µM; CC50 ([14]; Homo sapiens, SK-MEL-28, read-out: LC50 (molar concentration leading to 50% net cell death)): 7.24 µM; CC50 ([15]; Homo sapiens, UACC-257, read-out: LC50 (molar concentration leading to 50% net cell death)): 8.51 µM; GI50 ([17]; Homo sapiens, five-dose screen, read-out: GI50, range over colon cancer cell lines): 1.8 to 3.12 µM
2 | O=C(NCCCN1CCN(c2ccccc2)CC1)c1cc2c([nH]1)-c1ccccc1CCC2 [Compound 10, N-(3-(4-Phenylpiperazin-1-yl)propyl)-1,4,5,6-tetrahydrobenzo[6,7]cyclohepta[1,2-b]pyrrole-2-carboxamide] | 3.59 | 2.78 | 44.7 | 8.51 | −9.32 | < 60 | 73.7 | −8.50 | > 90 | 9.02 | 25.12 | 2.71 | 9.77 | 2.51 | 2.29 | 6.61 | 14.9 | 81.3 | 34.67 | 3.98 | inhibition at 10 µM ([6]; Homo sapiens, UACC-62, read-out: growth inhibition (GI%) and cytotoxicity (negative values)): < 60%; growth inhibition (GI%) and cytotoxicity (negative values) ([8]; human): −19.75%; GI50 ([10]; Homo sapiens, SW-620, five doses (10^−4–10^−8 M), read-out: Growth inhibition 50 (GI50)): 8.89 µM; TGI (molar concentration giving total growth inhibition) ([14]; SK-MEL-28): 8.51 µM
3 | N-(3-(4-Benzylpiperazin-1-yl)propyl)-2-chloro-1,4,5,6-tetrahydrobenzo[6,7]cyclohepta[1,2-b]pyrrole-2-carboxamide [Compound 11] | – | – | – | 3.55 | – | – | – | – | > 90 | – | 9.77 | – | 3.09 | – | – | 3.39 | – | – | 20.89 | – | EC50 [1]: 3.49 µM; GI50 ([2]; read-out: Growth inhibition 50 (GI50), M14, five doses (10^−4–10^−8 M)): 1.83 µM; CC50 ([2]; read-out: LC50 (molar concentration leading to 50% net cell death), M14): 6.92 µM; growth inhibition (GI%) and cytotoxicity (negative values) ([4]; MOLT-4, 10^−5 M, single dose): 99.74%; growth inhibition (GI%) and cytotoxicity (negative values) ([5]; KM12, 10^−5 M, single dose): 78.00%; GI50 ([10]; SW-620, five doses (10^−4–10^−8 M), read-out: Growth inhibition 50 (GI50)): 3.57 µM; GI50 ([12]; read-out: Growth inhibition 50 (GI50), UACC-62, five doses (10^−4–10^−8 M)): 2.55 µM; CC50 ([12]; read-out: LC50 (molar concentration leading to 50% net cell death), UACC-62): 31.6 µM; GI50 ([13]; read-out: Growth inhibition 50 (GI50), SK-MEL-5, five doses (10^−4–10^−8 M)): 1.72 µM; CC50 ([13]; read-out: LC50 (molar concentration leading to 50% net cell death), SK-MEL-5): 5.62 µM; TGI (molar concentration giving total growth inhibition) ([14]; SK-MEL-28): 3.31 µM; GI50 ([14]; read-out: Growth inhibition 50 (GI50), SK-MEL-28, five doses (10^−4–10^−8 M)): 1.75 µM; CC50 ([14]; read-out: LC50 (molar concentration leading to 50% net cell death), SK-MEL-28): 6.16 µM; GI50 ([15]; read-out: Growth inhibition 50 (GI50), UACC-257, five doses (10^−4–10^−8 M)): 1.74 µM; CC50 ([15]; read-out: LC50 (molar concentration leading to 50% net cell death), UACC-257): 6.61 µM; GI50 ([16]; read-out: Growth inhibition 50 (GI50), SK-MEL-2, five doses (10^−4–10^−8 M)): 7.85 µM; CC50 ([16]; read-out: LC50 (molar concentration leading to 50% net cell death), SK-MEL-2): 47.9 µM; GI50 ([17]; Colon Cancer panel average, read-out: GI50 mean graph midpoint (MG_MID)): 2.81 µM
